Experimental data from US4762648A, “Monofunctional and bisfunctional anthraquinone-(oxy-2,3-oxidopropanes), processes for their preparation, and their use as drugs” (Hoechst Aktiengesellschaft, priority 1983, dated 1988).
Converted amounts (≈) assume the structure as drawn.

What was measured:
L 1210 leukemia cells [1] = assay: Proliferation assay: incorporation of C-14-thymidine in L 1210 cells; assay type: cell-based; details: Mus musculus, read-out: Proliferation assay IC50
Protocol: The determination of the cytotoxic activity of the compounds described in the present patent is carried out on L 1210 leukemia cells of the mouse. Specifically, the following test systems were used:
In this in vitro method, after incubation of the cells with varying concentrations of the test substance a determination is carried out of the extent to which the cells can incorporate radioactively labelled DNA-precursors (for example C-14-labelled thymidine).
L 1210 Cells in the exponential growth phase (5×10^3 /ml in RPMI 1640) are incubated for 72 hours, in a microtitration plate, with different concentrations of the test substance (37° C., 5% CO2, 95% relative atmospheric humidity). Controls consist of cells which are incubated solely with fresh medium. All assays are carried out in quadruplicate. After 65 hours, 50 μl of C-14-thymidine (1.5 μc/ml) are added in order to radioactively label the DNA of the cell. After 7 hours' incubation, the cells are filtered off with suction, and the DNA is precipitated with 5% strength dichloroacetic acid and successively washed with water and methanol. After drying at 50° C., the radioactivity built into the DNA is determined after adding 5 ml of scintillation fluid.
The results are quoted as a ratio of the scintillation indices obtained after incubation with the test substance and obtained with the untreated control. From the measurements thus obtained, the dose/effect curve is determined and the IC50, i.e. the concentration which under test conditions reduces the incorporation of radioactive thymidine by 50% relative to the control, is determined graphically.

L 1210 leukemia cells [2] = assay: Colony formation of L 1210 leukemia cells in soft agar (stem cell assay); assay type: cell-based; details: Mus musculus
Protocol: In this test, cytostatically active substances produce a reduction of the number of colonies observed relative to an untreated control. Specifically, the test is carried out as follows:
500 Leukemia cells per plate are incubated with different concentrations of test substance for 1 hour at 37° C. The cells are then washed twice with McCoy 5a medium and finally, after addition of 0.3% of agar, poured out into Petri dishes. Controls are incubated with fresh medium only. In place of the 1-hour incubation, different concentrations of the test substance are in some cases mixed into the upper agar layer so as to achieve continuous exposure of the cells over the entire incubation period. After the agar has solidified, the plates are incubated in an incubating chamber for 7 days at 37° C. (5% CO2, 95% relative atmospheric humidity). Thereafter, the number of colonies formed which have a diameter of 60μ is counted. The results are quoted as the number of colonies in the treated agar plates expressed as a percentage of those in the untreated control. From the dose/effect curve thus obtained, the IC50 is determined and serves as a measure of the effectiveness of the substance.

[3] = Determination of acute toxicity, intraperitoneal; details: mouse, in vivo, ip, NMRI mice, day 14, Litchfield Wilcoxon
Protocol: To determine the acute toxicity, NMRI mice were injected intraperitoneally,on day 0, with different doses of the test substance suspended in 0.5 ml of 0.5% strength carboxymethylcellulose. Control groups were given solely 0.5 ml of carboxymethylcellulose solution. 5 Mice were employed per concentration of test substance. On day 14, the number of surviving mice is determined and the LD50 found therefrom by the Litchfield Wilcoxon method.

[4] = L1210, L 1210 cells, 72 hours, C-14-thymidine incorporation
[5] = L1210, 168 h, L 1210 colony formation in soft agar, continuous exposure, 7 days, read-out: Stem cell assay IC50, Incubation: Continuous
[6] = L1210, L 1210 colony formation in soft agar, 1 hour incubation, 7 days, read-out: Stem cell assay IC50, Incubation: 1 hour

IC50 (L 1210 leukemia cells [1]; [4]) [µg/mL] | Structure (SMILES) | IC50 (L 1210 leukemia cells [2]; [5]) [µg/mL] | IC50 (L 1210 leukemia cells [2]; [6]) [µg/mL] | IC50 (L 1210 leukemia cells [1]; L1210, 72 h) [µg/mL] | IC50 (L 1210 leukemia cells [2]; L1210, 168 h, read-out: Stem cell assay IC50, Incubation: Continuous) [µg/mL] | IC50 (L 1210 leukemia cells [2]; L1210, read-out: Stem cell assay IC50, Incubation: 1 hour) [µg/mL] | LD50 at 336 h [3] [mg/kg]
0.0022 (≈ 0.00624 µM) | O=C1c2ccccc2C(=O)c2c(OCC3CO3)ccc(OCC3CO3)c21 (centres unmarked) [Example 4, Anthraquinone-1,4-bis-(oxy-2,3-oxido-propane)] | 0.0033 (≈ 0.00937 µM) | 0.004 (≈ 0.0114 µM) | – | – | – | –
– | COc1cccc2c1C(=O)c1c(O)c3c(c(O)c1C2=O)C[C@@](O)(C(=O)CO)C[C@@H]3O[C@H]1C[C@H](N)[C@H](O)[C@H](C)O1 [Adriamycin, reference compound] | – | – | 0.006 (≈ 0.011 µM) | 0.02 (≈ 0.0368 µM) | 0.044 (≈ 0.081 µM) | 14
– | O=C1c2ccc(OCC3CO3)cc2C(=O)c2ccc(OCC3CO3)cc21 (centres unmarked) [Example 5, Anthraquinone-2,6-bis(oxy-2,3-oxido-propane)] | 0.01 (≈ 0.0284 µM) | 0.0083 (≈ 0.0236 µM) | 0.0044 (≈ 0.0125 µM) | – | – | 200
0.028 (≈ 0.0945 µM) | O=C1c2ccccc2C(=O)c2c(OCC3CO3)ccc(O)c21 (centres unmarked) [Example 3, 1-Hydroxy-anthraquinone-4-(oxy-2,3-oxido-propane)] | 0.03 (≈ 0.101 µM) | 0.066 (≈ 0.223 µM) | – | – | – | –

Structure (SMILES) | IC50 (L 1210 leukemia cells [1]; [4]) [µg/mL] | IC50 (L 1210 leukemia cells [2]; [5]) [µg/mL] | IC50 (L 1210 leukemia cells [2]; [6]) [µg/mL] | IC50 (L 1210 leukemia cells [1]; L1210, 72 h) [µg/mL] | IC50 (L 1210 leukemia cells [2]; L1210, 168 h, read-out: Stem cell assay IC50, Incubation: Continuous) [µg/mL] | IC50 (L 1210 leukemia cells [2]; L1210, read-out: Stem cell assay IC50, Incubation: 1 hour) [µg/mL] | LD50 at 336 h [3] [mg/kg]
O=C1c2cccc(OCC3CO3)c2C(=O)c2c(OCC3CO3)cccc21 (centres unmarked) [Example 8, Anthraquinone-1,8-bis-(oxy-2,3-oxido-propane)] | 0.028 (≈ 0.0795 µM) | 0.0085 (≈ 0.0241 µM) | 0.03 (≈ 0.0851 µM) | – | – | – | –
